Blank lines part the entries; values can stand above or below the compound they belong to.
Key:
[1] = system: Wnt activity (SW480 colon carcinoma cells stably expressing the Sp5-Luc reporter gene); assay: Sp5-Luc reporter gene screening assay for Wnt activity in SW480 cells; format: cell-based; conditions: Homo sapiens, 42 h incubation, luminescence
From the text: The screening assay for Wnt activity is described as follows. Reporter cell lines can be generated by stably transducing cancer cell lines (e.g., colon cancer) or primary cells (e.g., IEC-6 intestinal cells) with a lentiviral construct that includes a Wnt-responsive promoter driving expression of the firefly luciferase gene.
SW480 colon carcinoma cells were transduced with a lentiviral vector expressing luciferase with a human Sp5 promoter consisting of a sequence of eight TCF/LEF binding sites. SW480 cells stably expressing the Sp5-Luc reporter gene and a hygromycin resistance gene were selected by treatment with 150 μg/ml of hygromycin for 7 days. These stably transduced SW480 cells were expanded in cell culture and used for all further screening activities. For Sp5-Luc reporter gene assays, the cells were plated at 10,000 cells/well in 96-well plates with growth medium containing 10% fetal calf serum and incubated overnight at 37° C. and 5% CO2. Each compound was dissolved in DMSO as a 10 mM stock in standard j-vials and used to prepare compound source plates in dose-response format with 3-fold serial dilutions and a 10 mM top concentration. Compound transfer from serially diluted source plates to assay plates containing the cells was accomplished using a pintool (Multimek 96, Beckman equipped with V&P Scientific FP1S50H pins) based liquid handling protocol. This protocol used a slotted pin to transfer 50 nl of compound from a source plate well to an assay plate well containing 50 μl of cells in growth medium. […] Control wells received 50 nl of DMSO treatment for normalization and calculating IC50 values. The treated cells were incubated at 37° C. and 5% CO2 for an additional forty-two hours. Following incubation, the growth medium was removed and 50 μl of BrightGlo luminescence reagent (Promega) was added to each well of the 96-well assay plates. The plates were placed on an orbital shaker for 5 min and then luminescence was quantified on the Victor3 (Perkin Elmer) plate reader. Readings were normalized to DMSO only treated cells, and normalized activities were utilized for IC50 calculations using the dose-response log (inhibitor) vs. response—variable slope (four parameters) nonlinear regression feature available in GraphPad Prism 5.0 or 6.0.

[2] = system: primary human fibroblasts derived from IPF patients (LL29 cells); assay: Inhibition of fibrosis (αSMA) in TGF-β1 treated primary human fibroblasts from IPF patients; format: cell-based; conditions: Fibroblast, 96 h, TGF-β1 20 ng/mL, 4 days, % αSMA positive cells
From the text: The above synthesized compounds were screened using primary human fibroblasts (derived from IPF patients) treated with TGF-β1 to determine their ability to inhibit the fibrotic process.
Primary human fibroblasts derived from IPF patients (LL29 cells) [^1Xiaoqiu Liu, et.al., “Fibrotic Lung Fibroblasts Show Blunted Inhibition by cAMP Due to Deficient cAMP Response Element-Binding Protein Phosphorylation”, Journal of Pharmacology and Experimental Therapeutics (2005), 315(2), 678-687; ^2Watts, K. L., et.al., “RhoA signaling modulates cyclin D1 expression in human lung fibroblasts; implications for idiopathic pulmonary fibrosis”, Respiratory Research (2006), 7(1), 88] were obtained from American Type Culture Collection (ATCC) and expanded in F12 medium supplemented with 15% Fetal Bovine Serum and Penicillin/Streptomycin.
Each compound was dissolved in DMSO as a 10 mM stock and used to prepare compound source plates. Serial dilution (1:2, 11-point dose-response curves from 10 μM to 1.87 nM) and compound transfer was performed using the ECHO 550 (Labcyte, Sunnyvale, Calif.) into 384-well clear bottom assay plates (Greiner Bio-One) with appropriate DMSO backfill for a final DMSO concentration of 0.1%. LL29 cells were plated at 1,500 cells/well in 80 μl/well F12 medium supplemented with 1% Fetal Bovine Serum. One hour after addition of the cells, TGF-β1 (Peprotech; 20 ng/mL) was added to the plates to induce fibrosis (ref. 1 and 2 above). Wells treated with TGF-β1 and containing DMSO were used as controls. Cells were incubated at 37° C. and 5% CO2 for 4 days. Following incubation for 4 days, SYTOX green nucleic acid stain (Life Technologies [Thermo Fisher Scientific]) was added to the wells at a final concentration of 1 uM and incubated at room temperature for 30 min. Cells were then fixed using 4% formaldehyde (Electron Microscopy Sciences), washed 3 times with PBS followed by blocking and permeabilization using 3% Bovine Serum Albumin (BSA; Sigma) and 0.3% Triton X-100 (Sigma) in PBS. Cells were then stained with antibody specific to α-smooth muscle actin (αSMA; Abcam) (ref. 1 and 2 above) in 3% Bovine Serum Albumin (BSA; Sigma) and 0.3% Triton X-100 (Sigma) in PBS, and incubated overnight at 4° C. Cells were then washed 3 times with PBS, followed by incubation with Alexa Flor-647 conjugated secondary antibody (Life Technologies [Thermo Fisher Scientific]) and DAPI at room temperature for 1 hour. Cells were then washed 3 times with PBS and plates were sealed for imaging. αSMA staining was imaged by excitation at 630 nm and emission at 665 nm and quantified using the Compartmental Analysis program on the CellInsight CX5 (Thermo Scientific). Dead or apoptotic cells were excluded from analysis based on positive SYTOX green staining. % of total cells positive for αSMA were counted in each well and normalized to the average of 11 wells treated with TGF-β1 on the same plate using Dotmatics' Studies Software. The normalized averages (fold change over untreated) of 3 replicate wells for each compound concentration were used to create dose-responses curves and EC50 values were calculated using non-linear regression curve fit in the Dotmatics' Studies Software. The EC50 values are reported.

IC50 [1]: < 1 nM
SMILES: CCC(=O)Nc1cncc(-c2ccc3[nH]nc(-c4nc5c(-c6cccc(F)c6)ccnc5[nH]4)c3c2)c1 [Compound 1, N-(5-(3-(7-(3-Fluorophenyl)-3H-imidazo[4,5-b]pyridin-2-yl)-1H-indazol-5-yl)pyridin-3-yl)propionamide]
EC50 [2]: 0.015 nM

SMILES: CC(C)C(=O)Nc1cncc(-c2ccc3[nH]nc(-c4nc5c(-c6cccc(F)c6)ccnc5[nH]4)c3c2)c1 [Compound 9]
IC50 [1]: 3 nM
EC50 [2]: 9.99 nM

SMILES: CN(C)Cc1cncc(-c2ccc3[nH]nc(-c4nc5c(-c6cccc(F)c6)ccnc5[nH]4)c3c2)c1 [Compound 13, 1-(5-(3-(7-(3 -Fluorophenyl)-3H-imidazo[4,5-b]pyridin-2-yl)-1H-indazol-5-yl)pyridin-3-yl)-N,N-dimethylmethanamine]
IC50 [1]: 116 nM
EC50 [2]: 1.15 nM

SMILES: O=C(Nc1cncc(-c2ccc3[nH]nc(-c4nc5c(-c6cccc(F)c6)ccnc5[nH]4)c3c2)c1)C1CC1 [Compound 19, N-(5-(3-(7-(3-Fluorophenyl)-3H-imidazo[4,5-b]pyridin-2-yl)-1H-indazol-5-yl)pyridin-3-yl)cyclopropanecarboxamide]
IC50 [1]: 1 nM
EC50 [2]: 0.043 nM

SMILES: O=C(Nc1cncc(-c2ccc3[nH]nc(-c4nc5c(-c6cccc(F)c6)ccnc5[nH]4)c3c2)c1)C1CCCC1 [Compound 21, N-(5-(3-(7-(3-Fluorophenyl)-3H-imidazo[4,5-b]pyridin-2-yl)-1H-indazol-5-yl)pyridin-3-yl)cyclopentanecarboxamide]
IC50 [1]: 9.1 nM
EC50 [2]: 0.027 nM

SMILES: CC(C)(C)C(=O)Nc1cncc(-c2ccc3[nH]nc(-c4nc5c(-c6ccc(F)cc6)ccnc5[nH]4)c3c2)c1 [Compound 34, N-(5-(3-(7-(4-Fluorophenyl)-3H-imidazo[4,5-b]pyridin-2-yl)-1H-indazol-5-yl)pyridin-3-yl)pivalamide]
IC50 [1]: 19 nM
EC50 [2]: 0.334 nM

SMILES: Fc1ccc(-c2ccnc3[nH]c(-c4n[nH]c5ccc(-c6cncc(CN7CCCC7)c6)cc45)nc23)cc1 [Compound 40, 7-(4-Fluorophenyl)-2-(5-(5-(pyrrolidin-1-ylmethyl)pyridin-3-yl)-1H-indazol-3-yl)-3H-imidazo[4,5-b]pyridine]
IC50 [1]: 4030 nM
EC50 [2]: 0.009 nM

SMILES: O=C(Nc1cncc(-c2ccc3[nH]nc(-c4nc5c(-c6ccc(F)cc6)ccnc5[nH]4)c3c2)c1)C1CCC1 [Compound 46, N-(5-(3-(7-(4-Fluorophenyl)-3H-imidazo[4,5-b]pyridin-2-yl)-1H-indazol-5-yl)pyridin-3-yl)cyclobutanecarboxamide]
IC50 [1]: 2 nM
EC50 [2]: 0.08 nM

SMILES: CN(C)CCOc1cncc(-c2ccc3[nH]nc(-c4nc5c(-c6cccc(F)c6)ccnc5[nH]4)c3c2)c1 [Compound 1883, 2-((5-(3-(7-(3-Fluorophenyl)-3H-imidazo[4,5-b]pyridin-2-yl)-1H-indazol-5-yl)pyridin-3-yl)oxy)-N,N-dimethylethanamine]
EC50 [2]: 0.095 nM

SMILES: CC(C)CC(=O)Nc1cncc(-c2ccc3[nH]nc(-c4nc5c(-c6cc(F)cc(OCCN7CCCC7)c6)ccnc5[nH]4)c3c2)c1 [Compound 2242, N-(5-(3-(7-(3-Fluoro-5-(2-(pyrrolidin-1-yl)ethoxy)phenyl)-3H-imidazo[4,5-b]pyridin-2-yl)-1H-indazol-5-yl)pyridin-3-yl)-3-methylbutanamide]
IC50 [1]: 440 nM

SMILES: CC(C)CC(=O)Nc1cncc(-c2ccc3[nH]nc(-c4nc5c(-c6cc(O)cc(F)c6)ccnc5[nH]4)c3c2)c1 [Compound 2286, N-(5-(3-(7-(3-Fluoro-5-hydroxyphenyl)-3H-imidazo[4,5-b]pyridin-2-yl)-1H-indazol-5-yl)pyridin-3-yl)-3-methylbutanamide]
IC50 [1]: 55 nM

SMILES: COc1cc(F)cc(-c2ccnc3[nH]c(-c4n[nH]c5ccc(-c6cncc(NC(=O)CC(C)C)c6)cc45)nc23)c1 [Compound 2330, N-(5-(3-(7-(3-Fluoro-5-methoxyphenyl)-3H-imidazo[4,5-b]pyridin-2-yl)-1H-indazol-5-yl)pyridin-3-yl)-3-methylbutanamide]
IC50 [1]: 20 nM

— patent publication US10280166B2, “2-(1H-indazol-3-yl)-3H-imidazo[4,5-B]pyridine and therapeutic uses thereof” (Samumed, LLC, priority 2014, dated 2019)
